Data as given in article PMC8929364, “Metopimazine is primarily metabolized by a liver amidase in humans” (Pharmacology Research & Perspectives, 2021).

System: human liver microsomal amidase
Experiment: Incubations with heat-treated HLM for microsomal hydrolase/amidase activity, with and without BNPP
Type: in vitro ADME
Settings: 10 µM MPZ, pH 7.4, 8.4 and 9.4, 60 min
Method: Prior to the reaction for amidase activity, the reaction mixture containing KPi buffer (pH 7.4, 8.4, or 9.4) and HLM was pre‐incubated at 50°C for 5 min to inactivate CYP and FMO activities in HLM. The mixture was placed on ice to cool down. An aliquot was taken out which was considered as t = 0 min incubation. Then 10 µM MPZ was added into the remaining mixture and incubated at 37°C on an orbital shaker for 60 min. A parallel set of incubations was conducted with 10 µM MPZ in the presence at 2 and 16 µM, of BNPP (a known inhibitor of amidase). All reactions were in triplicate. The total percentage of organic solvent in the incubation mixture was ≤0.1%. The reactions were terminated by the addition of chilled acetonitrile: methanol, 90:10, (v/v). The samples were vortex‐mixed and stored at ≤−70°C and were subjected analyzed by LC–MS/MS.

SMILES: CS(=O)(=O)c1ccc2c(c1)N(CCCN1CCC(C(=O)O)CC1)c1ccccc1S2 [MPZA, metopimazine acid]
- pH dependence of MPZA formation in HLM: faster the higher the pH
